Results from US20250295679A1, “Compositions and Dosage Forms for Treatment of HPV Infection and HPV-Induced Neoplasia” (priority 2022, published 2025).

How the values were obtained:
[1] = Ex vivo permeation and penetration across porcine vaginal tissue (Franz diffusion cell, IVPT); type: in vitro ADME; settings: porcine vaginal tissue, FIG. 116; 0.1% Compound II gel; 1% and 3% ABI-1968 formulations
Text: FIG. 116 is an in vitro tissue permeation test in vaginal tissue comparing Compound II to ABI-1968. […] Bars B and C show the tissue penetration of a 0.1% Compound II gel in human cervical tissue. […] This may be a contributing factor to the performance of ABI-1968 in clinical studies. […] This is described in Example 41.
Freshly harvested porcine vaginal tissue was procured from local slaughterhouse in an ice box. The vaginal tissue was cut open to expose the mucosal surface and tissue was cleaned by gentle flow of PBS pH 7.4. The porcine vaginal tissue was cut into circular portions (approximately 2 cm^2) with help of a […] punch.
The circular portion of tissue was sandwiched between two chambers of a Franz diffusion cell with an active diffusion area of 1 cm^2, and the mucosal layer was exposed to the donor chambers. The resistance across porcine vaginal tissue was measured using a wave form generator to ensure the integrity of the tissue segment used for the permeation study. Porcine vaginal tissue with resistance of ≥3 KΩ·cm^2 was used for study. The receiver chamber was filled with 8 ml of 5% solutol PBS 7.4 pH, which was stirred at 600 rpm with a 3 mm magnetic stir bar and the temperature was maintained at 37° C. with a circulating water bath.
The ˜200 mg of gel was filled into tared 1 mL syringe and gel was dispensed to donor chamber. The gel was spread on to mucosal surface with pre weighed applicator. After loading and spreading of the gel onto surface of mucosal surface, the weight of 1 mL syringe and applicator was noted to determine the exact amount of gel loaded into donor chamber.
Time course (2 h, 4 h and 8 h) porcine vaginal permeation studies were performed. After loading gel, 500 μL samples were withdrawn from the receiver compartment at different time intervals and each time an equal volume of fresh receiver media was used to replace withdrawn samples. The sample withdrawn at each time interval were stored immediately in −20° C. until analysis. After 2, 4 and 8 h, the formulation was removed from the donor chamber with help of syringe and cleaned with cotton swab. The tissue was removed and washed gently with wash solution (50% methanol in water) 5 times and alternatively cleaning with cotton swab.
An 8 mm punch of active diffusion area of washed porcine vaginal tissue was removed, weighed and transferred into a tube. This tube was immediately placed into dry ice for ˜15 min. After specified time, tissue was removed and placed in precooled dish. The tissue was minced into smaller pieces on a dish with a precooled surgical blade. The minced tissue was transferred to sample tubes and dish was rinsed with 1 ml of 5% solutol in PBS 7.4 pH and transferred to same tissue sample tube. These tubes were stored in −70° C. until analysis. […]

[2] = Solubility in buffers, water and simulated vaginal fluid at 37° C.; settings: 37° C., 2 h
Experimental: About 4 mg of Compound I Pattern 1 was added into 2 mL of buffer solution.
(§1) Solubility was tested in five media, pH 3.0 citrate buffer, pH 4.5 acetate buffer, pH 6.8 phosphate buffer, water, simulated vaginal fluid (pH 4.2) at 37° C. for 0.5 h and 2 h.
The salt amount used is equivalent to 10 mg anhydrous free base. […] The obtained clear solutions were analyzed by pH meter for pH, and solubility was determined by observation.
as §1

[3] = Polymorph screening by equilibration in solvents; type: physicochemical
[4] = Hygroscopicity by DVS at 25° C.; type: physicochemical; settings: for XRPD after DVS test: 25° C.
Experimental: Hygroscopicity was investigated by DVS at 25° C., using the following method: • Method: 40-0-95-0-40% RH, dm/dt=0.002

[5] = Bulk (accelerated) stability, one week, HPLC and XRPD; settings: for Bulk (HPLC) Purity / Bulk Color: 1 week
Experimental: Bulk stability: Accelerated stability experiments were conducted at 25° C./92% RH and 40° C./75% RH in an open container, 60° C. in a tight container for one week.
Samples were characterized by XRPD and HPLC and inspected for color change.
Accelerated stability experiments were conducted at 25° C./92% RH in an open container, at 40° C./75% RH in an open container, and at 60° C. in a tight container for one week.

[6] = BS1: solid state, 25° C./92% RH, open container
[7] = BS2: solid state, 40° C./75% RH, open container
[8] = BS3: solid state, 60° C., tight container

For `CCOC(=O)[C@H](C)N[P@@](=O)(COCCn1cnc2c(OC)nc(N)nc21)OCc1ccccc1.O=C(O)/C=C/C(=O)O` [Compound II], the “Tissue penetration” value [1] was “high tissue penetration”, the “pH of solution at 2 hours” value ([2]; ES1: pH 3.0, 100 mM citrate buffer) was 2.85 and the “pH of solution at 2 hours” value ([2]; ES2: pH 4.5, 50 mM acetate buffer) was 4.2. For the same molecule, the “pH of solution at 2 hours” value ([2]; ES3: pH 6.8, 50 mM phosphate buffer) was 6.47, the “pH of solution at 2 hours” value ([2]; ES4: Water) was 2.87 and the “pH of solution at 2 hours” value ([2]; ES5: Simulated vaginal fluid (pH adjusted by 0.1N NaOH)) was 5.79. The “Crystal modification after 1 week equilibration at 25° C.” value (“Crystal modification” below) ([3]; PS1: IPA) was “Compound II Pattern 1”, the “Crystal modification” value ([3]; PS2: Heptanes) was “Compound II Pattern 1” and the “Crystal modification” value ([3]; PS3: Water) was “Compound II Pattern 1”. The “Crystal modification” value ([3]; PS4: ACN) was “Compound II Pattern 2”, the “Crystal modification” value ([3]; PS5: MEK) was “Compound II Pattern 3” and the “Crystal modification” value ([3]; PS6: Acetone) was “Compound II Pattern 1”. The “Crystal modification” value ([3]; PS7: IPA/heptanes (3/10, v/v)) was “Compound II Pattern 1”, the “Crystal modification” value ([3]; PS8: water/ACN (2.9/97.1, v/v)) was “Compound II Pattern 2” and the “Crystal modification” value ([3]; PS9: IPA/MTBE (1/3, v/v)) was “Compound II Pattern 1”. The “Crystal modification” value ([3]; PS10: EA/toluene (1/3, v/v)) was “Compound II Pattern 1”, the “Dissociation of the salt during equilibration experiments” value ([3]; equilibration in solvents, 1 week, 25° C.) was “no dissociation was observed” and the “Desorp. (%) Cycle 1” value ([4]; DVS 25° C., 0% RH) was 0.03%. For the same molecule, the “Desorp. (%) Cycle 2” value ([4]; DVS 25° C., 0% RH) was 0.03%, the “Sorp. (%) Cycle 1” value ([4]; DVS 25° C., 0% RH) was 0.03% and the “Sorp. (%) Cycle 2” value ([4]; DVS 25° C., 0% RH) was 0.03%. The “Desorp. (%) Cycle 1” value ([4]; DVS 25° C., 10% RH) was 0.05%, the “Desorp. (%) Cycle 2” value ([4]; DVS 25° C., 10% RH) was 0.05% and the “Sorp. (%) Cycle 1” value ([4]; DVS 25° C., 10% RH) was 0.04%. The “Sorp. (%) Cycle 2” value ([4]; DVS 25° C., 10% RH) was 0.04%, the “Desorp. (%) Cycle 1” value ([4]; DVS 25° C., 20% RH) was 0.08% and the “Desorp. (%) Cycle 2” value ([4]; DVS 25° C., 20% RH) was 0.07%. The “Sorp. (%) Cycle 1” value ([4]; DVS 25° C., 20% RH) was 0.06%, the “Sorp. (%) Cycle 2” value ([4]; DVS 25° C., 20% RH) was 0.06% and the “Desorp. (%) Cycle 1” value ([4]; DVS 25° C., 30% RH) was 0.10%. For the same molecule, the “Desorp. (%) Cycle 2” value ([4]; DVS 25° C., 30% RH) was 0.08%, the “Sorp. (%) Cycle 1” value ([4]; DVS 25° C., 30% RH) was 0.08% and the “Sorp. (%) Cycle 2” value ([4]; DVS 25° C., 30% RH) was 0.07%. The “Desorp. (%) Cycle 1” value ([4]; DVS 25° C., 40% RH) was 0.17%, the “Desorp. (%) Cycle 2” value ([4]; DVS 25° C., 40% RH) was 0.10% and the “Sorp. (%) Cycle 1” value ([4]; DVS 25° C., 40% RH) was 0.10%. The “Sorp. (%) Cycle 2” value ([4]; DVS 25° C., 40% RH) was 0.09%, the “Desorp. (%) Cycle 2” value ([4]; DVS 25° C., 50% RH) was 0.12% and the “Sorp. (%) Cycle 1” value ([4]; DVS 25° C., 50% RH) was 0.12%. For the same molecule, the “Desorp. (%) Cycle 2” value ([4]; DVS 25° C., 60% RH) was 0.14%, the “Sorp. (%) Cycle 1” value ([4]; DVS 25° C., 60% RH) was 0.13% and the “Desorp. (%) Cycle 2” value ([4]; DVS 25° C., 70% RH) was 0.18%. The “Sorp. (%) Cycle 1” value ([4]; DVS 25° C., 70% RH) was 0.16%, the “Desorp. (%) Cycle 2” value ([4]; DVS 25° C., 80% RH) was 0.21% and the “Sorp. (%) Cycle 1” value ([4]; DVS 25° C., 80% RH) was 0.19%. For the same molecule, the “Desorp. (%) Cycle 2” value ([4]; DVS 25° C., 90% RH) was 0.24%, the “Sorp. (%) Cycle 1” value ([4]; DVS 25° C., 90% RH) was 0.23% and the “Desorp. (%) Cycle 2” value ([4]; DVS 25° C., 95% RH) was 0.24%. For the same molecule, the “Sorp. (%) Cycle 1” value ([4]; DVS 25° C., 95% RH) was 0.24%, the Hygroscopicity ([4]; DVS at 25° C., in words) was “slightly hygroscopic” and the “XRPD after DVS test” value ([4]; after DVS 40-0-95-0-40% RH) was “No form change”. The “XRPD after DVS test” value ([4]; after humidity cycle 40-0-95-0-40% RH, listed as Compound II Pattern 1, monofumarate) was “No form change”, the “XRPD after DVS test” value ([4]; after humidity cycle 40-0-95-0-40% RH, monofumarate) was “does not change” and the Water uptake ([4]; up to / in 95% RH, DVS 25° C.) was “about 0.2%”. The “Stability after exposure to the three conditions” value ([5]; 25° C./92% RH open, 40° C./75% RH open, 60° C. tight container, one week) was “good physical and chemical stability”, the “Bulk (HPLC) Purity” value [5, 6] was 99.5% and the “Bulk Color” value [5, 6] was “No change”. For the same molecule, the “Bulk (HPLC) Purity” value [5, 7] was 99.4%, the “Bulk Color” value [5, 7] was “No change” and the “Bulk (HPLC) Purity” value [5, 8] was 99.7%. For the same molecule, the “Bulk Color” value [5, 8] was “No change” and the “HPLC purity, Initial” value ([5]; initial chemical purity before storage) was 99.7%.
